# The source made the active and inactive calls.
# Key:
# [1] = inhibitors of Bluetongue virus cytopathic effect, confirmation, arbovirus, BSR cells (AID 1250); assay type: functional;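 note: protection from viral cytopathic effect measured as cell viability by ATP luminescence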
# [2] = A Cell Based Secondary Assay To Explore Cytotoxicity of Compounds that Sensitize Mycobacterium Tuberculosis to Beta-Lactam Antibiotics.; assay type: functional
# [3] = target: T1, Aminopeptidase N (Plasmodium falciparum FcB1/Columbia, UniProt O96935); test: P. falciparum M1AAP inhibitors, biochemical, fluorogenic H-Leu-NHMec substrate, 1536-well (AID 1445); parameters: species or system Plasmodium falciparum 3D7, 3D7
# T1 sequence (O96935 whole entry): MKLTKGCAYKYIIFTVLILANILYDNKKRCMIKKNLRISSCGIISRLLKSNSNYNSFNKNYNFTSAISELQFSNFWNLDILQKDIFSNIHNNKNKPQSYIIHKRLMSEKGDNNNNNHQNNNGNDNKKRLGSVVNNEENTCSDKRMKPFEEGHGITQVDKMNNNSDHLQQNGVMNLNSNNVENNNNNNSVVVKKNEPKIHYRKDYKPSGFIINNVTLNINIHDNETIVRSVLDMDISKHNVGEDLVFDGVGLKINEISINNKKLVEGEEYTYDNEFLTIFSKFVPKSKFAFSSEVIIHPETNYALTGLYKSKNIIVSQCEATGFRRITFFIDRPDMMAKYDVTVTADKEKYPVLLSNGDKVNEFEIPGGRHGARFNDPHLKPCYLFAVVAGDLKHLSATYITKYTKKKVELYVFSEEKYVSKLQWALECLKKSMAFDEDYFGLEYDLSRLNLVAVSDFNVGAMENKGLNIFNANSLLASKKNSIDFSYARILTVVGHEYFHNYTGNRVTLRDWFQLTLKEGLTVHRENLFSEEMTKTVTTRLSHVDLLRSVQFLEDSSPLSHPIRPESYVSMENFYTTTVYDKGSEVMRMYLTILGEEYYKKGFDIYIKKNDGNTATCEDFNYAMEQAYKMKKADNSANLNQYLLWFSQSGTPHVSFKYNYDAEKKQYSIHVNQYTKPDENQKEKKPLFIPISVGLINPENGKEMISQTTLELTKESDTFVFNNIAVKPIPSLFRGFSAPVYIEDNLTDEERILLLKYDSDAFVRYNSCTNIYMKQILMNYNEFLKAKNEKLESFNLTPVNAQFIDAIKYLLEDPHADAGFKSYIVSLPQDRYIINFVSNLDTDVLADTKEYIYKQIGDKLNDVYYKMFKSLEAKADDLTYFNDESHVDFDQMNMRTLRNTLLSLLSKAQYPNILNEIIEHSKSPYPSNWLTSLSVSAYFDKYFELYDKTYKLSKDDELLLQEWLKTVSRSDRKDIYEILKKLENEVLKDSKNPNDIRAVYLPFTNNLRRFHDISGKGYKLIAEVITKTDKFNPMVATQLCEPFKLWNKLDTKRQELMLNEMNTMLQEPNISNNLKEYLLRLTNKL
# [4] = target: T2, Estrogen receptor (Homo sapiens, UniProt P03372); test: potentiators of ERα–SRC-1 coactivator binding, dose response, biochemical, TR-FRET, ERα LBD (AID 737)
# T2 sequence (P03372 whole entry): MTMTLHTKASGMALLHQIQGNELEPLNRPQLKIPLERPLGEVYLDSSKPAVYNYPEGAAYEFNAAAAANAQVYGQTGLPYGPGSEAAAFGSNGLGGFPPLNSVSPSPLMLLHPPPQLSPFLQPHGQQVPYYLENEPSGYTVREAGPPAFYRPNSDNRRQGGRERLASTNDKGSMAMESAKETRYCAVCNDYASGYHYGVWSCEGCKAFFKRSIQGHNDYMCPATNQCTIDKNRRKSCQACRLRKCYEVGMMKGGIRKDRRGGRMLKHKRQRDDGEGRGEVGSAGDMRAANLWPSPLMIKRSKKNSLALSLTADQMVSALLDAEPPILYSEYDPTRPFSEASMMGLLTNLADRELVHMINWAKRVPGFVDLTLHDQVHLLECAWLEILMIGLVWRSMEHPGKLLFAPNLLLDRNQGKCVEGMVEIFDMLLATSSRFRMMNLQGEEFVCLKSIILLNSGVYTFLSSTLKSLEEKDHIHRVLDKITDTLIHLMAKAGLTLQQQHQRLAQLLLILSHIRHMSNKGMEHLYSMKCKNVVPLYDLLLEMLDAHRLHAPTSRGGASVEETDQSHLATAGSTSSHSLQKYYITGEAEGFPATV
# [5] = cytotoxicity toward NIH3T3 fibroblasts, dose response, counter-screen, cell-based, ATP luminescence, mouse fibroblasts (AID 2010); assay type: functional;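 note: cells exposed to compound for about 90 hours before reading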
# [6] = target: T3, Mannose-6-phosphate isomerase (Homo sapiens, UniProt P34949); test: human PMI inhibitors, high substrate, primary screen, biochemical, fluorescence intensity, high mannose 6-phosphate (AID 1220)
# T3 sequence (P34949 whole entry): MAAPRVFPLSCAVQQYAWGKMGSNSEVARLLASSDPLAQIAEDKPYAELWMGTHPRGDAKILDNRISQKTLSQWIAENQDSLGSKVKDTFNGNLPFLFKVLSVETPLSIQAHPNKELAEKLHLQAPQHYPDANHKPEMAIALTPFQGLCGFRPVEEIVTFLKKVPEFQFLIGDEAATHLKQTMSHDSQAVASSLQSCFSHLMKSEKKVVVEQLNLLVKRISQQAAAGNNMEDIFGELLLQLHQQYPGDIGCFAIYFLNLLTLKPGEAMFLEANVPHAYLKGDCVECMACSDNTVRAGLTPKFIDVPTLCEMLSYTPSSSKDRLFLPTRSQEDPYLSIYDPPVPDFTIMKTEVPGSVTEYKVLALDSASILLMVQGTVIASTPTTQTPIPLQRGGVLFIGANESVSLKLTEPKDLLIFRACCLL
# [7] = inhibitors of intracellular T. cruzi replication, confirmation, NIH3T3 host cells, beta-gal luminescence (AID 2044); assay type: functional, cell-based;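 note: intracellular parasites grown in NIH/3T3 mouse fibroblasts as host cells; luminescent beta-galactosidase reporter signal from transgenic T. cruzi replicating inside host cells; inhibitors lower the luminescence signal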
# [8] = test system: Vero; test: cells; assay type: functional; conditions: Chlorocebus sabaeus
# [9] = target: Glucose-6-phosphate 1-dehydrogenase (Homo sapiens, UniProt P11413); test: human G6PD enzyme inhibitors, dose response, selectivity assay for P. falciparum G6PD inhibitor project, biochemical, fluorescence (AID 504792); assay type: functional
# [10] = C. albicans growth with fluconazole, confirmation, fluorescence, retest (AID 2467); assay type: functional, cell-based
# [11] = NIH-3T3 fibroblast cytotoxicity, dose response, cytotoxicity control, cell-based, fluorescence, Alamar Blue, secondary assay (AID 2327); assay type: functional;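 note: NIH-3T3 mouse fibroblasts cultured with fluconazole at 8 µg/mL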
# [12] = target: T4, Tyrosine-protein phosphatase non-receptor type 7 (Homo sapiens, UniProt P35236); test: inhibitors of human HePTP phosphatase, […], biochemical, absorbance, leukemia target (AID 521); assay type: functional
# T4 sequence (P35236 whole entry): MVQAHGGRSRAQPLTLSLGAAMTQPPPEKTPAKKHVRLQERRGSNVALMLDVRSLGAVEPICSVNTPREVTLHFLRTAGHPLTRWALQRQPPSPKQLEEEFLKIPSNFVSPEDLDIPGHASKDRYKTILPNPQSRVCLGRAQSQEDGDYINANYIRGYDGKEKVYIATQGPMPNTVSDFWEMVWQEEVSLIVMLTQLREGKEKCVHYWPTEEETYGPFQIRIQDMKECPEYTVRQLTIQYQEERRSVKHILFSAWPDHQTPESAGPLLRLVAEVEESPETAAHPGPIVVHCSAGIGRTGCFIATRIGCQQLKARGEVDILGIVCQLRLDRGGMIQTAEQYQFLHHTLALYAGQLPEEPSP
# [13] = Luminescence Cell-Based Dose Confirmation to Identify Activators of 5'UTR Stem-Loop Driven Alpha-Synuclein mRNA Translation in H4 Neuroglioblastoma Cells. [Related pubchem assays: 1829 (Project Summary), 1814 (Primary HTS)]; assay type: functional
# [14] = test system: H4; test: Luminescence Cell-Based Dose Response HTS to Identify Activators of 5'UTR Stem-Loop Driven Prion Protein mRNA Translation in H4 Neuroglioblastoma Cells. [Related pubchem assays: 1829 (Project Summary), 1814 (Primary HTS)]; assay type: functional; conditions: Homo sapiens
# [15] = Luminescence Cell-Based Dose Response HTS to Identify Activators of Luciferase Translation or Activity in H4 […] Cells. [Related pubchem assays: 1829 (Project Summary), 1814 (Primary HTS)]; assay type: functional
# [16] = Luminescence Cell-Based Dose Response to Identify Activators of 5'UTR Stem-Loop Driven Prion Protein mRNA Translation in H4-C Neuroglioblastoma Cells. [Related pubchem assays: 1829 (Project Summary), 1814 (Primary HTS)]; assay type: functional
# [17] = Luminescence Cell-Based Dose Response to Identify Activators of Luciferase Translation or Activity in H4-C Neuroglioblastoma Cells. [Related pubchem assays: 1829 (Project Summary), 1814 (Primary HTS)]; assay type: functional
# [18] = Luminescence Cell-Based Dose Response HTS to Identify Inhibitors of 5'UTR Stem-Loop Driven Prion Protein mRNA Translation in H4 Neuroglioblastoma Cells. [Related pubchem assays: 1827 (Project Summary), 1813 (Primary HTS)]; assay type: functional
# [19] = inhibitors of firefly luciferase expression or activity, dose response, H4 neuroglioma cells, luminescence (AID 1990); assay type: functional, cell-based
# [20] = inhibitors of SNCA 5'UTR-driven reporter translation, confirmation, H4 neuroglioma cells, luminescence (AID 1988); assay type: functional, cell-based
# [21] = cells
# [22] = HEp-2 cell cytotoxicity, dose response, cytotoxicity control for RSV inhibitor project, HTS (AID 2410); assay type: functional; conditions: human respiratory syncytial virus
# [23] = target: Estrogen receptor beta (Homo sapiens, UniProt Q92731);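 note: recombinant ER-beta bound to coactivator SRC1 peptide in presence of estradiol agonist; inhibitors block coactivator peptide binding and lower the FRET signal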
# [24] = target: T5, E3 ubiquitin-protein ligase XIAP (Homo sapiens, UniProt P98170); test: Counter Screen using XIAP-Bir3 for Chemical Antagonists of Bir1/2 domains of IAP-family anti-apoptotic proteins. [Related pubchem assays (depositor defined):AID1018, AID1449, AID1514, AID1638, AID1749, AID1750, AID488957, AID488963]
# [25] = target: T5, E3 ubiquitin-protein ligase XIAP; test: XIAP antagonists, biochemical, IAP family, fluorescence polarization (AID 1018); assay type: functional
# [26] = target: E3 ubiquitin-protein ligase Mdm2 (Homo sapiens, UniProt Q00987); test: enhancers of MDM2-luciferase reporter signal, concentration-effect titration, project on inhibitors of MDM2 ubiquitin ligase, cellular assay, luminescent readout, 384-well plate format (AID 1394); assay type: functional;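 note: MDM2 E3 inhibitors raise luminescence so EC50 is for signal enhancement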
# [27] = target: Induced myeloid leukemia cell differentiation protein Mcl-1 (Homo sapiens, UniProt Q07820); test: MCL1-BIM BH3 interaction inhibitors, dose response, biochemical, fluorescence polarization, BIM-BH3 peptide, 1536-well (AID 2217)
# [28] = target: Bcl-2-like protein 1 (Homo sapiens, UniProt Q07817); test: BCL-XL inhibitors, dose response, selectivity assay for MCL1 inhibitor project, biochemical, fluorescence polarization, 1536-well (AID 2218)
# [29] = target: Large T antigen (Simian virus 40, UniProt P03070); assay type: functional, Betapolyomavirus macacae;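 note: Confirmatory-stage PubChem screen for compounds that inhibit SV40 T antigen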
# Chain of Large T antigen (P03070 whole entry): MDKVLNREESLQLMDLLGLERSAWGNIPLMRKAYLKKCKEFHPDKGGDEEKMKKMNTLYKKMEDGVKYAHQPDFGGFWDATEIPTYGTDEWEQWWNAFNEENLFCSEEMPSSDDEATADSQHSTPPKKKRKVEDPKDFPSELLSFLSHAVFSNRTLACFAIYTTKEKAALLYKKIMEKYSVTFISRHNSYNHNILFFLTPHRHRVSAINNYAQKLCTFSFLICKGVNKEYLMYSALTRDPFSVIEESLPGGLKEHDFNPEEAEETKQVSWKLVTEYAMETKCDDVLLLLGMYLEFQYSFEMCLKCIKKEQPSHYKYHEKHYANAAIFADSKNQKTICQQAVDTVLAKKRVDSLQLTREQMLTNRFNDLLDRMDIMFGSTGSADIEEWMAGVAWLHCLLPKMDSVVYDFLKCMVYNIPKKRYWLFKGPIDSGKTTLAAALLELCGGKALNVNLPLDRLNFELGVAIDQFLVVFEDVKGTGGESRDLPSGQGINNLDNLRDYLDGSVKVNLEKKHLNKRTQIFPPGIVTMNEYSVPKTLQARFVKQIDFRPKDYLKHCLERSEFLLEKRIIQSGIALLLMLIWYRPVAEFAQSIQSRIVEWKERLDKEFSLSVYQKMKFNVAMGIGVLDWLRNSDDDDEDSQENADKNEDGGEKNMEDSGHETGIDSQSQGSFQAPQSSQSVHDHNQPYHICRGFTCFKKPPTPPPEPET
# T5 sequence (P98170 whole entry): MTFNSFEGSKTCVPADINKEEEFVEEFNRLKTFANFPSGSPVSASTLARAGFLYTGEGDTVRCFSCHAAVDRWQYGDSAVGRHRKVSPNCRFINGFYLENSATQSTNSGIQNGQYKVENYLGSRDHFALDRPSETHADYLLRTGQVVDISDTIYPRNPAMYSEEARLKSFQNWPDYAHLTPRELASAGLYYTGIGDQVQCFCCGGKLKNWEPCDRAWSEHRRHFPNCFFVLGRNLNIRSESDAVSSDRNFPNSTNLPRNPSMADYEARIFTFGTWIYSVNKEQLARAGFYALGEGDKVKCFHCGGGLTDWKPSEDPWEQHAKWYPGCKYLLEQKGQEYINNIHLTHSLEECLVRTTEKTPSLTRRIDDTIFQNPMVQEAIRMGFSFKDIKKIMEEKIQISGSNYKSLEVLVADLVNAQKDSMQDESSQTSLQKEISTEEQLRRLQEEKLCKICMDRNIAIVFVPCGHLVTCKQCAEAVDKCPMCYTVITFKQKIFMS
# Chain of E3 ubiquitin-protein ligase Mdm2 (Q00987 whole entry): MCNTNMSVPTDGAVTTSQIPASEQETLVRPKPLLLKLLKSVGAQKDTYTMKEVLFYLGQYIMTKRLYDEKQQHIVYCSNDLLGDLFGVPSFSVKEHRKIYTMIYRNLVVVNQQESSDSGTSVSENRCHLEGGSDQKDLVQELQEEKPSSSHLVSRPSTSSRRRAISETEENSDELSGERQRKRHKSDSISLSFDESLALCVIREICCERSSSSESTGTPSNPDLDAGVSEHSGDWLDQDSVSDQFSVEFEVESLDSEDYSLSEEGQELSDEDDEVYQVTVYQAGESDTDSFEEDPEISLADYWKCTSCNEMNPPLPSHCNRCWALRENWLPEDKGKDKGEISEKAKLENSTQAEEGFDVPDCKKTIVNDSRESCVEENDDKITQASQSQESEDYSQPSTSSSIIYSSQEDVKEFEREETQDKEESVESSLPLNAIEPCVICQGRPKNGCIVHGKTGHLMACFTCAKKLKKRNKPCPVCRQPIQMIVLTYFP
# Chain of Glucose-6-phosphate 1-dehydrogenase (P11413 whole entry): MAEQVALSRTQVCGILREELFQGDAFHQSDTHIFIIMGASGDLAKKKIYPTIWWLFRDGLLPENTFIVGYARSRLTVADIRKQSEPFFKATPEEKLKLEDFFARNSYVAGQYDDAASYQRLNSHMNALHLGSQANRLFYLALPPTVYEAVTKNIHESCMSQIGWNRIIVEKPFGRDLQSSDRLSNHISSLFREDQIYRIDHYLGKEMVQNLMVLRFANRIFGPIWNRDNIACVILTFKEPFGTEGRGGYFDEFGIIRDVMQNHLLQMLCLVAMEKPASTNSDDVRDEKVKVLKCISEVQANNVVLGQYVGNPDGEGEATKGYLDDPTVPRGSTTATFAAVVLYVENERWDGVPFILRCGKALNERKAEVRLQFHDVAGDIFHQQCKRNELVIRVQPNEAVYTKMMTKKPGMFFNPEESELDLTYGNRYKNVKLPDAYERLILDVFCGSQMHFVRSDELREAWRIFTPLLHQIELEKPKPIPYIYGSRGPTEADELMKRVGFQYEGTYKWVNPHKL
# Chain of Bcl-2-like protein 1 (Q07817 whole entry): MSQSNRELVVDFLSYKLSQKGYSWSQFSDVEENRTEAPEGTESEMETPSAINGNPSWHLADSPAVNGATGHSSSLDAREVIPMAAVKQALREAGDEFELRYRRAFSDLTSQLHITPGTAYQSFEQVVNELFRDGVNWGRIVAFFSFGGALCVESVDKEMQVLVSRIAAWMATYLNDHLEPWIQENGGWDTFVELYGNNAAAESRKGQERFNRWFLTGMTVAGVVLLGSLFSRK
# Chain of Induced myeloid leukemia cell differentiation protein Mcl-1 (Q07820 whole entry): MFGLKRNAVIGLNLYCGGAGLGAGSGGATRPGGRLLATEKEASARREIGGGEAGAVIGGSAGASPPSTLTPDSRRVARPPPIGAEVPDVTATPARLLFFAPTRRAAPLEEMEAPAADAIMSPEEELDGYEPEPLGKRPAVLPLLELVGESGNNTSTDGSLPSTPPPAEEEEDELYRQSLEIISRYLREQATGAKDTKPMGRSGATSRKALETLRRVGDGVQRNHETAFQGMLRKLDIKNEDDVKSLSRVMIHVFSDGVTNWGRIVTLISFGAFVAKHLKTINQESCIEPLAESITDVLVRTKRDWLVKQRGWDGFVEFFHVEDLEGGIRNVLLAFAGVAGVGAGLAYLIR
# Chain of Estrogen receptor beta (Q92731 whole entry): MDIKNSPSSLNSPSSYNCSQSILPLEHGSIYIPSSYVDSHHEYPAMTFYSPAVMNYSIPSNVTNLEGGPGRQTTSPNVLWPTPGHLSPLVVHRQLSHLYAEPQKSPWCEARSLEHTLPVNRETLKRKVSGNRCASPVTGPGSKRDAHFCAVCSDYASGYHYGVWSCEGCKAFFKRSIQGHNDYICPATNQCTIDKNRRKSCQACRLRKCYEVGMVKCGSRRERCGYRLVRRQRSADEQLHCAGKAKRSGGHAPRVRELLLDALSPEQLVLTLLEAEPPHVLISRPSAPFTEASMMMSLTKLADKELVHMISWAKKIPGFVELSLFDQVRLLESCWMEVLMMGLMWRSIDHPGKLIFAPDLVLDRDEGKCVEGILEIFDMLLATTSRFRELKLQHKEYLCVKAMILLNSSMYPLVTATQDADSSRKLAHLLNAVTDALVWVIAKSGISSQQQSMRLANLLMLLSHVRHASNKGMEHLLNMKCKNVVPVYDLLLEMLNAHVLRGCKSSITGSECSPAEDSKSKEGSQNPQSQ
structure (smiles),measurement,setting,value
CC(C)Cn1c2c(c(O)c(C(=O)Nc3nccs3)c1=O)CCCC2,IC50,[1],94.4 µM (active)
same,CC50,[2],> 40 µM (active)
O=C(Nc1scc(-c2cccs2)c1C(=O)O)c1cccs1,IC50,[1],24 µM (active)
same,IC50,[3],49.2 µM (active)
Cc1ccc(NC(=O)CSc2nnc(-c3cnccn3)n2Cc2ccco2)cc1C,EC50,[4],37.6 µM (not active)
COc1cc(CNc2ccc(N3CCCC3)cc2)cc(Cl)c1OC,EC50,[5],> 30 µM (not active)
same,IC50,[6],> 50 µM (not active)
same,EC50,[7],2.95 µM (active)
same,CC50,[8],4.57 µM (active)
same,IC50,[9],> 80 µM (inactive)
same,EC50,[10],> 38 µM (not active)
same,EC50,[11],48.1 µM (inconclusive)
CCn1cc(C(=O)NCC2CCCO2)c(=O)c2cc(S(=O)(=O)N3CCC(C)CC3)ccc21 (stereo not drawn),IC50,[12],> 100 µM (not active)
O=C(NC1=NCCS1)c1ccc(Cl)cc1,EC50,[13],0.24 µM (active)
same,EC50,[14],101 µM (active)
same,EC50,[15],< 0.1 µM (inconclusive)
same,EC50,[16],0.744 µM (active)
same,EC50,[17],0.401 µM (active)
CC(C)(C)c1ccc(OCCn2ccccc2=O)cc1,EC50,[13],0.668 µM (active)
same,EC50,[14],< 0.1 µM (active)
same,EC50,[16],0.546 µM (active)
same,EC50,[17],0.237 µM (active)
COc1ccc(/N=C2/C(=N\c3ccc(OC)cc3)N(c3ccc(OC)cc3)C(=S)N2c2ccc(N(C)C)cc2)cc1,EC50,[18],0.126 µM (active)
same,EC50,[19],0.146 µM (active)
same,EC50,[20],0.123 µM (active)
same,IC50,[21],5.89 µM (active)
same,CC50,[22],> 50 µM (active)
CN(C1CCCCC1)S(=O)(=O)c1ccc(S(=O)(=O)N2CCN(CCC#N)CC2)cc1,IC50,[23],> 50 µM (not active)
COc1ccccc1Cn1c(=O)c2ccccc2n2c(SCC(=O)N3CCCCC3)nnc12,IC50,[24],> 100 µM (inactive)
same,IC50,[25],> 100 µM (not active)
O=c1nc(NCc2ccco2)sc2ncccc12,IC50,[24],> 100 µM (inactive)
same,IC50,[25],> 100 µM (not active)
COc1ccc(OC)c(C2C(C(=O)Nc3ccccc3OC)=C(C)Nc3nc(CCCO)nn32)c1 (stereo not drawn),IC50,[12],> 100 µM (not active)
CC(=O)Nc1ccc(S(=O)(=O)N(C)CC(=O)OCC(=O)N2CCc3ccccc32)cc1,EC50,[26],149 µM (not active)
O=C(O)C1Nc2ccc(OC(F)(F)F)cc2C2C=CCC12 (stereo not drawn),IC50,[27],8.63 µM (active)
same,IC50,[28],60.6 µM (not active)
same,IC50,[29],12.7 µM (active)
Cc1cc(NC(=O)CSc2nc(C(C)C)nc3c2c(=O)n(C)c(=O)n3C)no1,EC50,[26],12.3 µM (not active)

# Reference: ChEMBL document CHEMBL1201862, “PubChem BioAssay data set” (2004)
